Data from publication PMC8977229 (Journal of molecular biology, 2022).

Molecular target: T1, FraR (Salmonella enterica, UniProt Q8ZLC9)
T1 sequence (Q8ZLC9 1-239): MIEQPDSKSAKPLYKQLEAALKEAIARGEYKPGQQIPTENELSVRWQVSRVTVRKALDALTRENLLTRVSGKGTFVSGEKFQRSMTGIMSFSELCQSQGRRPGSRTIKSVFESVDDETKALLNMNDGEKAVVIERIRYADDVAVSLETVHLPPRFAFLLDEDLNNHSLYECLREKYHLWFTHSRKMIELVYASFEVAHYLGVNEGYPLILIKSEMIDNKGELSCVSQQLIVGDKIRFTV
Experiment: online buffer exchange native MS titration
Assay type: binding

O=C(O)C[C@H](NCC(=O)[C@@H](O)[C@H](O)[C@H](O)COP(=O)(O)O)C(=O)O [6-P-F-Asp, 6-phosphofructose-aspartate]
Kd: 3.8 ± 0.6 µM
